Test results taken from patent publication US11951197B2, “Use of volatile compounds to modulate the perception of floral muguet” (FIRMENICH SA, priority 2018, dated 2024).

Columns and labels:
Format in all cases: cell-based
[1] = target: T1, OR10J5 olfactory receptor (Homo sapiens, UniProt Q8NHC4); test: Dose-response confirmation of enhancer candidates, alone and with EC20 LYRAL®; conditions: response to LYRAL® raised beyond EC20 without measurable intrinsic activity
T1 construct: Flag; Rho (rhodopsin-derived tag); expressed in transfected cells
T1 sequence (Q8NHC4 1-309): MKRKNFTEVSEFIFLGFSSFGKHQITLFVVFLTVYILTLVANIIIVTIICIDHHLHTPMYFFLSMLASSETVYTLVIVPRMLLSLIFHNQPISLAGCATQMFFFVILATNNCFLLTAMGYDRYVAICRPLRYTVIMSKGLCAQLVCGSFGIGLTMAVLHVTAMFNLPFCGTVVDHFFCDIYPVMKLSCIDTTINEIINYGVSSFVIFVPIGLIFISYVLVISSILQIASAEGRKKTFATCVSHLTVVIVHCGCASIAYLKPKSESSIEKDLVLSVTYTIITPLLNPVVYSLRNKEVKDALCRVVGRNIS
Description: A dose response curve showing the activation of OR10J5 in response to the floral muguet compound 3-(4-hydroxy-4-methylpentyl)cyclohex-3-ene-1-carbaldehyde, 4-(4-hydroxy-4-methylpentyl)cyclohex-3-ene-1-carbaldehyde or a mixture thereof (sold under the tradename LYRAL®, hereinafter referred to as “LYRAL®”) is shown in FIG. 1. Using a cell-based assay, OR10J5 activity was tested in a HEK293T cell line wherein the endogenous chaperone RTP1 gene has been activated and the odorant receptor chaperone was expressed according to the methods disclosed in International Patent Application Publication No. WO2016/201153 A1. The Flag-Rho-tagged receptor was co-transfected with the olfactory canonical G-protein Golf and was exposed to a binary mixture of a single concentration of LYRAL® and a test compound.
A library of volatile compounds was used to create binary mixtures of each compound with LYRAL® at approximately EC20, a concentration eliciting only approximately 20% of full activity level of OR10J5 by itself. An activation cell-based assay was used for the initial enhancer candidate identification as disclosed in WO2019122236. Single binary mixture-induced receptor activity was detected by measuring the cAMP increase in the cytosol using an HTRF (Homogenous Time-Resolved Fluorescence unit) based kit (CisBio, cAMP dynamic 2 kit, 62AM4PEJ).
The 37 candidates remaining in Table 2 were identified and were tested in two parallel dose-response experiments to confirm the true enhancement properties of the potential candidates. First, a dose-response of each individual candidate was performed to determine if it was an agonist by itself. Second, the same candidate dose-response curve in the presence of EC20 LYRAL® concentration (generating 20% activity on OR10J5) was assessed for activity level increase.

[2] = target: T2, OR10J5 (Homo sapiens, UniProt Q8NHC4); test: LYRAL® dose-response with serial enhancer concentrations, allosteric EC50 shift model; conditions: for α (cooperativity factor): enhancer 0 to 600 μM, allosteric EC50 shift equation (Prism7), α>1 indicates positive allosteric modulation; for Kb: read-out: KB (equilibrium dissociation constant of the enhancer)
T2 construct: Flag; Rho (rhodopsin-derived tag); expressed in transfected cells
T2 sequence (Q8NHC4 1-309): T1 sequence (Q8NHC4 1-309)
Description: Functional dose-response experiments were performed to reveal the allosteric nature of the interaction between 3-(1,3-benzodioxol-5-yl)-2-methylpropanal, 3-(4-methylcyclohex-3-en-1-yl)butanal, 2,6-dimethylhept-5-enal and heptanal and OR10J5. The level of enhancement of OR10J5's activation was evaluated at distinct concentrations of each enhancer. Using the same cell-based assay described earlier, dose response curves of OR10J5 to LYRAL® in the presence of serial concentrations of the enhancers spanning from 0 to 600 μM were performed, see FIG. 5. The curves were obtained by applying the simplified Allosteric EC50 shift effect equation (available in Prism7) derived from the ternary complex interaction model. The enhancement levels recorded were not linearly dependent on the concentration of the enhancer, and the following key parameters values for α (the cooperativity factor) and KB (the equilibrium dissociation constant of the enhancer) were obtained from the model for each enhancer: 3-(1,3-benzodioxol-5-yl)-2-methylpropanal, α=6.3 and KB=10 μM; 3-(4-methylcyclohex-3-en-1-yl)butanal, α=7.5 and KB=15 μM; 2,6-dimethylhept-5-enal, α=4.1 and KB=16 μM; and heptanal; α=3.2 and KB=51 μM. α>1 is indicative of positive allosteric modulation.

[3] = target: T2, OR10J5; test: (+−)-2,5-dimethyl-2-indanmethanol dose-response with a steady concentration of test compound
Description: OR10J5 activity enhancement was tested with an additional agonist and with one of the test compounds and conditions described in the Examples above. Dose response curves to (+−)-2,5-dimethyl-2-indanmethanol was obtained in the presence of a steady concentration of the test compound and compared to a dose-response curve of the agonist alone. The resulting enhancement was quantified by means of EC50-fold shift (potency increase) and the efficacy span ratio (efficacy increase) as described above.

Compound	enhancement of OR10J5 LYRAL® activation (true enhancer) [1]	also measured
CC(C)=CCCC(C)C=O (racemic) [2,6-dimethylhept-5-enal]	potent enhancement	α (cooperativity factor) [2]: 4.1; Kb [2]: 16 µM
Cc1ccc(CC(C)C=O)cc1 (racemic) [2-methyl-3-(4-methylphenyl)propanal]	potent enhancement	–
Cc1ccc2c(c1)CC(C)(CO)C2 (racemic) [(+−)-2,5-dimethyl-2-indanmethanol, reference compound]	–	agonist character at OR10J5 [3]: partial agonist
CC1=CC(C)C(C=O)C(C)C1 (centres unmarked) [2,4,6-trimethyl-3-cyclohexene-1-carbaldehyde]	potent enhancement	–
CC(C=O)c1ccccc1 (centres unmarked) [2-phenylpropanal]	potent enhancement	–
Cc1cccc(C=O)c1 [3-methylbenzaldehyde]	potent enhancement	–
CC(C)c1ccc(C=O)cc1 [4-Propan-2-ylbenzaldehyde]	potent enhancement	–
C/C=C/C=O [(E)-but-2-enal]	potent enhancement	–
O=Cc1ccccc1 [benzaldehyde]	potent enhancement	–

Now from value to compound, other results behind:

enhancement of OR10J5 LYRAL® activation (true enhancer) [1]	Compound	also measured
potent enhancement	3,5,6-Trimethyl-3-Cyclohexene-1-Carbaldehyde + 2,4,6-Trimethyl-3-Cyclohexene-1-Carbaldehyde	–
potent enhancement	COC(C)(C)CCCC(C)C=O (racemic) [6-methoxy-2,6-dimethylheptanal]	–
potent enhancement	CCc1ccc(C=O)cc1 [4-ethylbenzaldehyde]	–
potent enhancement	CC(C)=CCC[C@@H](C)CC=O [(3R)-3,7-dimethyloct-6-enal]	–
potent enhancement	CCCCCCC/C=C/C=O [(E)-dec-2-enal]	–
potent enhancement	CCCCCC/C=C/C=O [(E)-non-2-enal]	–
potent enhancement	CCCCCCC=O [heptanal]	α (cooperativity factor) [2]: 3.2; Kb [2]: 51 µM
potent enhancement	CCCCCC=O [hexanal]	–
potent enhancement	CCCCCCCC=O [octanal]	–
potent enhancement	(+−)-3-(4-Methyl-3-penten-1-yl)-3-cyclohexene-1-carbaldehyde + (+−)-4-(4-Methyl-3-penten-1-yl)-3-cyclohexene-1-carbaldehyde	–
